From PubChem BioAssay (NCI)
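Exposure lasted 48 hours, with cells grown in 96-well plates and compounds tested at five concentrations. At the GI50, growth is halved. TGI: concentration producing complete growth inhibition.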

Tests used:
Test in all cases: NCI anticancer screen, dose series, 48 h
[1] = test system: A498 renal
[2] = test system: HL-60(TB) leukemia
[3] = test system: A549 NSCLC
[4] = test system: SNB-19 CNS
[5] = test system: OVCAR-5 ovarian
[6] = test system: OVCAR-8 ovarian
[7] = test system: RPMI-8226 leukemia
[8] = test system: SF-295 CNS
[9] = test system: SK-OV-3 ovarian
[10] = test system: MALME-3M melanoma
[11] = test system: TK-10 renal
[12] = test system: HCT-116 colon
[13] = test system: SN12C renal
[14] = test system: UACC-62 melanoma
[15] = test system: HOP-92 NSCLC
[16] = test system: UACC-257 melanoma
[17] = test system: SR leukemia
[18] = test system: HS 578T breast
[19] = test system: K-562 leukemia
[20] = test system: NCI-H460 lung
[21] = test system: OVCAR-3 ovarian
[22] = test system: NCI-H23 lung
[23] = test system: HT29 colon
[24] = test system: RXF 393 renal
[25] = test system: SK-MEL-2 melanoma
[26] = test system: CAKI-1 renal
[27] = test system: PC-3 prostate
[28] = test system: SK-MEL-28 melanoma
[29] = test system: DU-145 prostate
[30] = test system: HOP-62 NSCLC
[31] = test system: COLO 205 colon
[32] = test system: KM12 colon
[33] = test system: UO-31 renal
[34] = test system: CCRF-CEM leukemia
[35] = test system: NCI-H226 lung
[36] = test system: BT-549 breast
[37] = test system: U251 CNS
[38] = test system: SF-268 CNS
[39] = test system: HCC-2998 colon
[40] = test system: OVCAR-4 ovarian
[41] = test system: LOX IMVI melanoma
[42] = test system: 786-0 renal
[43] = test system: SW-620 colon
[44] = test system: MDA-MB-231 breast
[45] = test system: M14 melanoma
[46] = test system: ACHN renal
[47] = test system: SNB-75 CNS
[48] = test system: MOLT-4 leukemia
[49] = test system: NCI-H522 lung
[50] = test system: HCT-15 colon
[51] = test system: MDA-MB-435
[52] = test system: SF-539 CNS
[53] = test system: NCI/ADR-RES ovarian
[54] = test system: SK-MEL-5 melanoma
[55] = test system: T-47D breast
[56] = test system: EKVX NSCLC
[57] = test system: MCF7 breast
[58] = test system: IGROV1 ovarian

COc1cc2c3c(n(CCCN4CCCC4)c(=O)c2cc1OC)-c1cc2c(cc1C3=O)OCO2
GI50 [1]: 5.53 µM | TGI [1]: 10.8 µM | GI50 [2]: 0.677 µM | TGI [2]: 1.89 µM | GI50 [3]: 1.4 µM | TGI [3]: 2.85 µM | GI50 [4]: 1.54 µM | TGI [4]: 3.72 µM | GI50 [5]: 1.9 µM | TGI [5]: 3.5 µM | GI50 [6]: 1.36 µM | TGI [6]: 3.09 µM | GI50 [7]: 1.25 µM | TGI [7]: 4.5 µM | GI50 [8]: 0.223 µM | TGI [8]: 2.01 µM | GI50 [9]: 0.795 µM | TGI [9]: 2.46 µM | GI50 [10]: 1.5 µM | TGI [10]: 3.22 µM | GI50 [11]: 1.93 µM | TGI [11]: 3.46 µM | GI50 [12]: 1.14 µM | TGI [12]: 2.69 µM | GI50 [13]: 1.65 µM | TGI [13]: 3.38 µM | GI50 [14]: 1.48 µM | TGI [14]: 3.48 µM | GI50 [15]: 1.93 µM | TGI [15]: 3.94 µM | GI50 [16]: 1.49 µM | TGI [16]: 3.21 µM | GI50 [17]: 0.0514 µM | TGI [17]: 0.59 µM | GI50 [18]: 2.03 µM | TGI [18]: 5.08 µM | GI50 [19]: 0.216 µM | TGI [19]: 0.895 µM | GI50 [20]: 0.206 µM | TGI [20]: 2.24 µM | GI50 [21]: 1.57 µM | TGI [21]: 2.98 µM | GI50 [22]: 1.63 µM | TGI [22]: 3.98 µM | GI50 [23]: 1.32 µM | TGI [23]: 2.76 µM | GI50 [24]: 1.49 µM | TGI [24]: 2.95 µM | GI50 [25]: 17.1 µM | TGI [25]: 33.6 µM | GI50 [26]: 1.16 µM | TGI [26]: 2.45 µM | GI50 [27]: 1.47 µM | TGI [27]: 3.84 µM | GI50 [28]: 1.71 µM | TGI [28]: 3.38 µM | GI50 [29]: 1.31 µM | TGI [29]: 2.58 µM | GI50 [30]: 0.65 µM | TGI [30]: 2.46 µM | GI50 [31]: 1.11 µM | TGI [31]: 2.55 µM | GI50 [32]: 1.61 µM | TGI [32]: 3.23 µM | GI50 [33]: 1.43 µM | TGI [33]: 2.85 µM | GI50 [34]: 0.0673 µM | TGI [34]: 2.31 µM | GI50 [35]: 5.87 µM | TGI [35]: 20.5 µM | GI50 [36]: 1.4 µM | TGI [36]: 3.49 µM | GI50 [37]: 1.18 µM | TGI [37]: 2.48 µM | GI50 [38]: 0.65 µM | TGI [38]: 2.37 µM | GI50 [39]: 1.38 µM | TGI [39]: 2.8 µM | GI50 [40]: 1.77 µM | TGI [40]: 3.38 µM | GI50 [41]: 0.68 µM | TGI [41]: 2.29 µM | GI50 [42]: 1.32 µM | TGI [42]: 2.9 µM | GI50 [43]: 0.624 µM | TGI [43]: 3.45 µM | GI50 [44]: 1.65 µM | TGI [44]: 3.31 µM | GI50 [45]: 1.5 µM | TGI [45]: 3.01 µM | GI50 [46]: 1.36 µM | TGI [46]: 2.67 µM | GI50 [47]: 0.286 µM | TGI [47]: 1.96 µM | GI50 [48]: < 0.0179 µM | TGI [48]: 1.61 µM | GI50 [49]: 0.789 µM | TGI [49]: 2.52 µM | GI50 [50]: 1.43 µM | TGI [50]: 3.1 µM | GI50 [51]: 1.59 µM | TGI [51]: 3.12 µM | GI50 [52]: 1.32 µM | TGI [52]: 2.77 µM | GI50 [53]: 1.35 µM | TGI [53]: 3.68 µM | GI50 [54]: 4.25 µM | TGI [54]: 9.12 µM | GI50 [55]: 4.7 µM | TGI [55]: 11.1 µM | GI50 [56]: 1.95 µM | TGI [56]: 3.96 µM | GI50 [57]: 0.228 µM | TGI [57]: 2.21 µM | GI50 [58]: 1.42 µM | TGI [58]: 3.09 µM
